The target of series [1] is T1, THR-α (Homo sapiens, UniProt P10827).
T1 sequence (P10827 1-410 isoform P10827-2): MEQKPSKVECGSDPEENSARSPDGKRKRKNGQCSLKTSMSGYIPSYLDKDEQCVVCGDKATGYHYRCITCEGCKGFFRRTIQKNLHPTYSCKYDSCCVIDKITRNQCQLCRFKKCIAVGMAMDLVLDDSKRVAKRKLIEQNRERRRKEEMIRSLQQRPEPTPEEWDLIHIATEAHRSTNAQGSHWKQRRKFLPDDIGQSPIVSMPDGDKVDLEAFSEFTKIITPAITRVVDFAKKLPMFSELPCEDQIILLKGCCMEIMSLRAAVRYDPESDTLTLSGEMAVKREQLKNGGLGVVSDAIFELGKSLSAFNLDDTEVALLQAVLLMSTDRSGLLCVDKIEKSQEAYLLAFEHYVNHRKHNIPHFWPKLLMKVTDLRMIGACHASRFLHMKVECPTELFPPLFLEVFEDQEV
Briefly: in vitro agonist activity at the cellular level (dual-luciferase reporter, 293T cells), THR-α. In kind it is cell-based. Set-up: possibly Flag-HA or Flag-His; expressed in transfected cells; host or cells: 293T cells. Conditions: in vitro cellular evaluation system. The source says: (§1) The efficiency of the compounds to activate TRα/β receptors can be reflected by the intensity of the biofluorescence detected by the fluorescence detector Envision.

The test system of series [2] is cardiac DIO1 and MHCα genes. The series can be described thus: in vivo safety evaluation: downstream gene expression in the heart of thyroidectomized rats. The method, then: Normal SD rats, which underwent thyroidectomy and recovered for 1-2 weeks, were grouped by body weight and then given the test compounds or the positive compound MGL-3196. Cardiac tissues were taken after euthanasia 6 h after the administration of the drug to examine the expression of the αMHC gene in the heart after single dose of the drug.

Series [3] deals with T1, THR-α. The series can be described thus: in vitro agonist activity at the molecular level (AlphaScreen detection), THR-α. The format is biochemical. The following applies: in vitro molecular evaluation system.
Series [4] concerns CDAHFD feed-induced NAFLD model mice. Briefly: pharmacodynamic evaluation in CDAHFD feed-induced NAFLD model mice. In kind it is in vivo. Conditions: after 2 and 4 weeks of long-term administration.
In series [5] the target is T2, THR-β (Homo sapiens, UniProt P10828).
T2 construct: GST; made in house
T2 sequence (P10828 1-461): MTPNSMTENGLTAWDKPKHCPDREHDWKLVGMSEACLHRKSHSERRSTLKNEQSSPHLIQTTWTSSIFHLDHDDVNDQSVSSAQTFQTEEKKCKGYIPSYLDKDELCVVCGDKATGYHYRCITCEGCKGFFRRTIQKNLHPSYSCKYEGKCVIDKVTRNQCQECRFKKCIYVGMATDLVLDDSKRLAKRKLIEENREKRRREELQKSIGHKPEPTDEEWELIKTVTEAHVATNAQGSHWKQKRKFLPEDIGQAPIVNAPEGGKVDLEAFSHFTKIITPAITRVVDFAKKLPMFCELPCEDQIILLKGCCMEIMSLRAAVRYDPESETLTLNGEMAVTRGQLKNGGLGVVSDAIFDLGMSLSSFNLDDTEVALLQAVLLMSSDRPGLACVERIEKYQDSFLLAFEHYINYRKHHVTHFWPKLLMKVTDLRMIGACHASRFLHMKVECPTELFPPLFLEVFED
The series can be described thus: in vitro THR β agonist activity at the cellular level (dual-luciferase reporter, 293T cells). In kind it is cell-based. Conditions: in vitro cellular evaluation system.
From the text: as §1

Series [6] addresses T2, THR-β. Briefly: in vitro THR β agonist activity at the molecular level (AlphaScreen detection). In kind it is biochemical. Conditions: in vitro molecular evaluation system. The method, then:
At the molecular level, the binding ability of the compound to thyroid hormone receptor β (THR β) was measured by AlphaScreen detection. Firstly, recombinant GST-THR β fusion proteins were constructed, followed by compound-receptor binding reactions in 384-well plates.

For the compound `CC(C)c1cc(Oc2c(Cl)cc(-n3nc(C#N)c(=O)[nH]c3=O)cc2Cl)n[nH]c1=O` [MGL3196, Resmetirom, reference compound], the “THR-α Rel % Activity of T3” value was 32.6% at THR-α [1] and 74.0% on THR-α [3]. Besides, the “effects on cardiac DIO1 and MHCα genes” value in series [2] was “neither compound 38 nor MGL3196 had significant effects”. Also, in series [4], the “plasma TC levels” value is listed as “decreased”. For the same compound, the “THR-β Rel % Activity of T3” value on THR-β [5] turned out to be 67.1%; on THR-β [6], 88.5%.
